These results are taken from US20230085307A1, “PYRIDAZINONE COMPOUND AND HERBICIDE” (NISSAN CHEMICAL CORPORATION, priority 2019, published 2023).

Test [1] has as its system Italian ryegrass. The test is described as follows: Test Example 4: herbicidal effect by soil treatment (Table 19, symbol K). The test is classed as in vivo, Italian ryegrass (Lolium multiflorum). In short, it runs like this: (§1)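 Step 1: sow seeds in sterilized diluvial soil, cover ~1.5 cm. Step 2: spray diluted emulsion onto soil surface at predetermined rate. Step 3: greenhouse, 25–30° C, three weeks. Step 4: grade effect on each plant by earlier criteria.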

The test system of test [2] is wild oat. Put plainly: Test Example 4: herbicidal effect by soil treatment (Table 19, symbol I). The test is classed as in vivo, wild oat (Avena fatua). The procedure, abridged:
as §1

Test [3] relates to chickweed. The test is described as follows: Test Example 4: herbicidal effect by soil treatment (Table 19, symbol P). Type of test: in vivo, common chickweed (Stellaria media). The procedure, abridged: as §1
Test [4] has as its system persian speedwell. Put plainly: Test Example 5: herbicidal effect by foliage application, plastic box (Table 20, symbol R). Type of test: in vivo, Persian speedwell (Veronica persica). The note with it: foliage application, three weeks after application. The procedure, abridged: (§2)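 Foliar spray test: emulsion formulation diluted in water to a set application rate, sprayed onto 14-day-old plants raised in diluvial soil at 25° C to 30° C under glass. Both herbicidal effect and crop effect rated visually three weeks later.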

Test [5] relates to chickweed. The test is described as follows: Test Example 5: herbicidal effect by foliage application, plastic box (Table 20, symbol P). Type of test: in vivo, common chickweed (Stellaria media). The note with it: foliage application, three weeks after application. In short, it runs like this: as §2
In test [6] the test system is rice flat sedge. Put plainly: Test Example 3: herbicidal effect by foliage application, Wagner pot (Table 18, symbol E). Type of test: in vivo, rice flat sedge (Cyperus iria). In short, it runs like this:
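Plants were sown in alluvial soil held under 0.1–0.5 cm standing water and grown 14 days in a greenhouse at 25–30 °C. An emulsifiable formulation, water-diluted to the set dose, was then sprayed onto the foliage, and effects were scored three weeks later using previously defined criteria.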

The test system of test [7] is persian speedwell. Put plainly: Test Example 4: herbicidal effect by soil treatment (Table 19, symbol R). Type of test: in vivo, Persian speedwell (Veronica persica). The procedure, abridged: as §1
Test [8] relates to lambsquarters. Put plainly: Test Example 4: herbicidal effect by soil treatment (Table 19, symbol O). Type of test: in vivo, lambsquarters (Chenopodium album). In short, it runs like this:
as §1

For test [9], the system named is Japanese bulrush. Put plainly: Test Example 2: herbicidal activity, application during weed generation under submerged conditions (Table 17, symbol B). Type of test: in vivo, Japanese bulrush (Schoenoplectus juncoides). The note with it: application during weed generation, submerged conditions. In short, it runs like this:
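Alluvial soil in Wagner pots was flooded to 4 cm depth and sown with the three weeds together; pots were kept in a greenhouse at 25° C. to 30° C. At the one to two leaf stage, an emulsion formulation diluted in water to a set rate went onto the water surface; scored three weeks later.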

The test system of test [10] is barnyard grass. The test is described as follows: Test Example 4: herbicidal effect by soil treatment (Table 19, symbol H). The test is classed as in vivo, barnyard grass (Echinochloa crus-galli). In short, it runs like this: as §1
Test [11] deals with Italian ryegrass. The test is described as follows: Test Example 5: herbicidal effect by foliage application, plastic box (Table 20, symbol K). The test is classed as in vivo, Italian ryegrass (Lolium multiflorum). The note with it: foliage application, three weeks after application. The procedure, abridged: as §2
Test [12] deals with blackgrass. The test is described as follows: Test Example 5: herbicidal effect by foliage application, plastic box (Table 20, symbol J). The note with it: foliage application, three weeks after application. The test is classed as in vivo, blackgrass (Alopecurus myosuroides). The procedure, abridged:
as §2

Test [13] relates to southern crabgrass. The test is described as follows: Test Example 5: herbicidal effect by foliage application, plastic box (Table 20, symbol F). The test is classed as in vivo, southern crabgrass (Digitaria ciliaris). The note with it: foliage application, three weeks after application. The procedure, abridged:
as §2

Test [14] deals with oval-leafed pondweed. Put plainly: Test Example 1: herbicidal activity, application before weed generation under submerged conditions (Table 16, symbol C). The test is classed as in vivo, oval-leafed pondweed (Monochoria vaginalis). The procedure, abridged: (§3)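 Submerged Wagner pots (alluvial soil, 4 cm water) sown with weed seeds and planted with 2.5-leaf rice seedlings; emulsifiable concentrate diluted in water applied to water surface on sowing day. Held in greenhouse at 25-30 °C; injury scored 0-5 by herbicidal rate after three weeks.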

The subject of test [15] is blackgrass. Put plainly: Test Example 4: herbicidal effect by soil treatment (Table 19, symbol J). The test is classed as in vivo, blackgrass (Alopecurus myosuroides). In short, it runs like this:
as §1

For test [16], the system named is southern crabgrass. Put plainly: Test Example 4: herbicidal effect by soil treatment (Table 19, symbol F). Type of test: in vivo, southern crabgrass (Digitaria ciliaris). The procedure, abridged: as §1
Test [17] relates to Japanese bulrush. The test is described as follows: Test Example 1: herbicidal activity, application before weed generation under submerged conditions (Table 16, symbol B). Type of test: in vivo, Japanese bulrush (Schoenoplectus juncoides). The procedure, abridged:
as §3

Setting [18] is: amount of applied herbicide 320 g/ha.
Setting [19] is: amount of applied herbicide 323 g/ha.

In the case of `CCOc1ccc2c(-c3c(O)c(C)nn(C)c3=O)c(-c3ccccc3OCC)sc2c1` [3-093], the “K: Italian ryegrass, herbicidal effect grade” value (“K: Italian ryegrass” below) was 4 (Herbicidal rate of 70% or more and less than 90%) in test [1] (setting [18]); 5 (Herbicidal rate of 90% or more (almost completely withered)) in test [11] (320 g/ha). Besides, the “I: wild oat, herbicidal effect grade” value in [2] (setting [18]) is 3 (Herbicidal rate of 40% or more and less than 70%). For the same compound, the “P: chickweed, herbicidal effect grade” value is 4 (Herbicidal rate of 70% or more and less than 90%) in test [3] (setting [18]); 5 (Herbicidal rate of 90% or more (almost completely withered)) in test [5] (320 g/ha). Besides, the “R: persian speedwell, herbicidal effect grade” value (shortened to “R: persian speedwell”) in test [4] (320 g/ha) and in test [7] (setting [18]) was 5 (Herbicidal rate of 90% or more (almost completely withered)) in each case. In addition, the “herbicidal effect on rice flat sedge (E)” value in test [6] (320 g/ha) is given as 5 (Herbicidal rate of 90% or more (almost completely withered)). Moreover, the “O: lambsquarters, herbicidal effect grade” value (from here on “O: lambsquarters”) in test [8] (setting [18]) was 4 (Herbicidal rate of 70% or more and less than 90%). In addition, the “herbicidal effect rating, B: Japanese bulrush” value (“herbicidal effect rating, B” for short) in [9] (AAH 320 g/ha) is 5 (Herbicidal rate of 90% or more (almost completely withered)). Also, the “H: barnyard grass, herbicidal effect grade” value (“H: barnyard grass” for short) in test [10] (setting [18]) is 4 (Herbicidal rate of 70% or more and less than 90%). In addition, the “J: blackgrass, herbicidal effect grade” value in test [12] (320 g/ha) was 4 (Herbicidal rate of 70% or more and less than 90%); in [15] (setting [18]), 3 (Herbicidal rate of 40% or more and less than 70%). Besides, the “F: southern crabgrass, herbicidal effect grade” value (from here on “F: southern crabgrass”) in test [13] (320 g/ha) and in [16] (setting [18]) was 5 (Herbicidal rate of 90% or more (almost completely withered)) throughout. For the same compound, the “Herbicidal effect, C: oval-leafed pondweed” value (from here on “Herbicidal effect, C”) in test [14] (setting [18]) is 5 (Herbicidal rate of 90% or more (almost completely withered)). Further, in [17] (setting [18]), the “Herbicidal effect, B: Japanese bulrush” value was 5 (Herbicidal rate of 90% or more (almost completely withered)).

In the case of `CCCC(=O)Oc1c(C)nn(C)c(=O)c1-c1c(-c2ccccc2OCC)sc2cc(OCC)ccc12` [3-094], the “K: Italian ryegrass” value in test [1] (setting [19]) was 4 (Herbicidal rate of 70% or more and less than 90%); in [11] (323 g/ha), 3 (Herbicidal rate of 40% or more and less than 70%). For the same compound, the “I: wild oat, herbicidal effect grade” value in [2] (setting [19]) is 0 (Herbicidal rate of 5% or less (almost no effect)). Moreover, the “P: chickweed, herbicidal effect grade” value in test [3] (setting [19]) was 4 (Herbicidal rate of 70% or more and less than 90%); in test [5] (323 g/ha), 5 (Herbicidal rate of 90% or more (almost completely withered)). The “R: persian speedwell” value in test [4] (323 g/ha) and in test [7] (setting [19]) was 5 (Herbicidal rate of 90% or more (almost completely withered)) throughout. In addition, the “herbicidal effect on rice flat sedge (E)” value in test [6] (323 g/ha) is reported as 5 (Herbicidal rate of 90% or more (almost completely withered)). Moreover, the “O: lambsquarters” value in test [8] (setting [19]) is 4 (Herbicidal rate of 70% or more and less than 90%). Besides, in test [9] (AAH 323 g/ha), the “herbicidal effect rating, B” value was 4 (Herbicidal rate of 70% or more and less than 90%). Also, the “H: barnyard grass” value in test [10] (setting [19]) is reported as 0 (Herbicidal rate of 5% or less (almost no effect)). In addition, the “J: blackgrass, herbicidal effect grade” value in test [12] (323 g/ha) is 4 (Herbicidal rate of 70% or more and less than 90%); in test [15] (setting [19]) it was 2 (Herbicidal rate of 20% or more and less than 40%). Also, the “F: southern crabgrass” value in test [13] (323 g/ha) was 4 (Herbicidal rate of 70% or more and less than 90%); in [16] (setting [19]), 3 (Herbicidal rate of 40% or more and less than 70%). Besides, the “Herbicidal effect, C” value in [14] (setting [19]) was 5 (Herbicidal rate of 90% or more (almost completely withered)). Also, in test [17] (setting [19]), the “Herbicidal effect, B: Japanese bulrush” value was 5 (Herbicidal rate of 90% or more (almost completely withered)).

Regarding `CCCOc1ccc2c(-c3c(O)c(C)nn(C)c3=O)c(-c3ccccc3OC)sc2c1` [3-099], the “K: Italian ryegrass” value in [1] (setting [18]) and in test [11] (320 g/ha) was 5 (Herbicidal rate of 90% or more (almost completely withered)) throughout. Further, in test [2] (setting [18]), the “I: wild oat, herbicidal effect grade” value is 0 (Herbicidal rate of 5% or less (almost no effect)). Also, the “P: chickweed, herbicidal effect grade” value in [3] (setting [18]) was 3 (Herbicidal rate of 40% or more and less than 70%); in [5] (320 g/ha), 5 (Herbicidal rate of 90% or more (almost completely withered)). In addition, the “R: persian speedwell” value in test [4] (320 g/ha) is 5 (Herbicidal rate of 90% or more (almost completely withered)); in test [7] (setting [18]) it was 4 (Herbicidal rate of 70% or more and less than 90%). The “herbicidal effect on rice flat sedge (E)” value in test [6] (320 g/ha) is given as 5 (Herbicidal rate of 90% or more (almost completely withered)). Further, the “O: lambsquarters” value in test [8] (setting [18]) is recorded as 5 (Herbicidal rate of 90% or more (almost completely withered)). The “herbicidal effect rating, B” value in test [9] (AAH 320 g/ha) was 4 (Herbicidal rate of 70% or more and less than 90%). Moreover, the “H: barnyard grass” value in test [10] (setting [18]) was 4 (Herbicidal rate of 70% or more and less than 90%). Besides, the “J: blackgrass, herbicidal effect grade” value in test [12] (320 g/ha) is 5 (Herbicidal rate of 90% or more (almost completely withered)); in [15] (setting [18]) it was 4 (Herbicidal rate of 70% or more and less than 90%). The “F: southern crabgrass” value in [13] (320 g/ha) and in test [16] (setting [18]) was 5 (Herbicidal rate of 90% or more (almost completely withered)) each time. Besides, the “Herbicidal effect, C” value in test [14] (setting [18]) is on record as 5 (Herbicidal rate of 90% or more (almost completely withered)). The “Herbicidal effect, B: Japanese bulrush” value in [17] (setting [18]) is given as 5 (Herbicidal rate of 90% or more (almost completely withered)).

In the case of `CCCOc1ccc2c(-c3c(O)c(C)nn(C)c3=O)c(-c3ccccc3OCC)sc2c1` [3-103], the “K: Italian ryegrass” value in [1] (setting [18]) and in [11] (320 g/ha) was 5 (Herbicidal rate of 90% or more (almost completely withered)) in each case. Further, the “I: wild oat, herbicidal effect grade” value in test [2] (setting [18]) is 0 (Herbicidal rate of 5% or less (almost no effect)). The “P: chickweed, herbicidal effect grade” value in test [3] (setting [18]) and in test [5] (320 g/ha) was 5 (Herbicidal rate of 90% or more (almost completely withered)) in each case. For the same compound, the “R: persian speedwell” value in test [4] (320 g/ha) and in test [7] (setting [18]) was 5 (Herbicidal rate of 90% or more (almost completely withered)) each time. For the same compound, the “herbicidal effect on rice flat sedge (E)” value in [6] (320 g/ha) is reported as 5 (Herbicidal rate of 90% or more (almost completely withered)). Further, the “O: lambsquarters” value in [8] (setting [18]) is 5 (Herbicidal rate of 90% or more (almost completely withered)). In test [9] (AAH 320 g/ha), the “herbicidal effect rating, B” value is 3 (Herbicidal rate of 40% or more and less than 70%). In addition, the “H: barnyard grass” value in test [10] (setting [18]) was 4 (Herbicidal rate of 70% or more and less than 90%). The “J: blackgrass, herbicidal effect grade” value was 4 (Herbicidal rate of 70% or more and less than 90%) in test [12] (320 g/ha); 3 (Herbicidal rate of 40% or more and less than 70%) in test [15] (setting [18]). Besides, the “F: southern crabgrass” value in test [13] (320 g/ha) and in test [16] (setting [18]) was 5 (Herbicidal rate of 90% or more (almost completely withered)) in each case. In addition, the “Herbicidal effect, C” value in test [14] (setting [18]) is reported as 5 (Herbicidal rate of 90% or more (almost completely withered)). For the same compound, the “Herbicidal effect, B: Japanese bulrush” value in [17] (setting [18]) is listed as 5 (Herbicidal rate of 90% or more (almost completely withered)).
